Reference: patent publication US10604489B2, “Compounds for the treatment of pain” (priority 2018, dated 2020)
Structures can show the parent of a compound that is named as a salt.

Legend:
human μ opioid receptor [1] = biological target: T1, human μ opioid receptor (Homo sapiens (Human), UniProt P35372); experiment: Alternate functional activity ([35S]GTPγS binding) assay, SPA beads; type: biochemical; conditions: alternate assay: [35S]GTPγS 0.020 nM, CHO cell membranes with WGA PVT SPA beads
Description: The [^35S]GTPγS assay measures the functional properties of a compound by quantifying the level of G-protein activation following agonist binding in studies using stably transfected cells, and is considered to be a measure of the efficacy of a compound. Membranes from CHO (Chinese Hamster Ovary) cells that stably expressed one type of the cloned human opioid receptor human were used in the experiments. The assay buffer consisted of 50 mM Tris-HCl, pH 7.4, 3 mM MgCl2, 0.2 mM EGTA, 5 μM GDP, and 100 mM NaCl. CHO cell membranes stably expressing the human p opioid receptor were pre-incubated with scintillation proximity assay beads from PerkinElmer® (WGA PVT SPA) for 30 minutes, at 8 µg membrane and […] beads in a volume of 0.1 mL per reaction. In a final volume of 0.2 mL, 11 different concentrations of each test compound were incubated with the membrane-SPA bead mixture and a final concentration of 0.020 nM [35S]GTPγS for 1.5 hours with gentle shaking. Reactions were then incubated for 5 hours. Data are the mean EC50 values ±S.E.M. EC50 values (nM) for compounds 12, 16, 19, 20, 149, 151, 152, 157, 160, 161, 164-169, 172, 173, 180-197, and 199-207 are shown in Table 1.

μ-receptor [2] = biological target: T2, μ-receptor (Homo sapiens (Human), UniProt P35372); experiment: Alternate receptor binding assay, competitive displacement of [3H]DAMGO; conditions: alternate assay: 0.8 nM [3H]DAMGO, 5 mM MgCl2, CHO cell membrane protein, 120 min
Male Sprague-Dawley rats [3] = experiment: animal or person; type: in vivo, rat; conditions: sc; minimum dose at which maximal reversal of hind paw weight bearing (50±0.5%) was achieved; subcutaneous administration; rat; read-out: MEMD SC CFA
human μ opioid receptor [4] = biological target: T1, human μ opioid receptor; experiment: Functional activity ([35S]GTPγS binding); type: biochemical; conditions: [35S]GTPγS 0.080 nM, CHO cell membranes, 60 min at 30° C., filtration
How it was run: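 Membranes from stably transfected CHO cells (7.5 μg) incubated with 12 test-compound concentrations and 0.080 nM [35S]GTPγS in 50 mM Tris-HCl pH 7.4, 3 mM MgCl2, 0.2 mM EGTA, 3 μM GDP, 100 mM NaCl, 60 min at 30° C. Nonspecific binding defined with 10 μM GTPγS; bound label collected by filtration and scintillation counting.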

Male Sprague-Dawley rats [5] = conditions: maximum pCO2 within 2 hours of administration, subcutaneous, rat; for <60 mmHg @ 10X CFA MEMD: dose 10× CFA MEMD; for <60 mmHg @ 100X CFA MEMD: dose 100× CFA MEMD
μ-receptor [6] = biological target: T2, μ-receptor; experiment: Receptor binding, competitive displacement of [3H]DAMGO; conditions: 0.25 nM [3H]DAMGO, CHO cell membrane protein, 60 min at 25° C.
How it was run: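 Membranes from CHO cells stably expressing cloned human μ-opioid receptor incubated 60 min at 25 °C with 12 compound concentrations and 0.25 nM [3H]DAMGO in 50 mM Tris-HCl pH 7.5; nonspecific binding with 10 μM naloxone. Filtration and scintillation counting; Ki from IC50 by Cheng-Prusoff.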

SMILES | EC50 (human μ opioid receptor [1]) | Ki (μ-receptor [2]) | other results
NC(=O)c1cccc(C2(OCC(F)F)C3CCCC2CNC3)c1 (centres unmarked) [Compound 182] | 10 to 75 nM | > 5 nM | 
COC1(c2cccc(C(N)=O)c2)C2CCCC1CN(CCCF)C2 [Compound 157, 3-((1R,5S,9r)-3-(3-fluoropropyl)-9-methoxy-3-azabicyclo[3.3.1]nonan-9-yl)benzamide hydrochloride] | 10 to 75 nM | < 1 nM | 
COC1(c2cccc(C(N)=O)c2)C2CCCC1CN([C@@H](C)c1cnc[nH]1)C2 (stereo partly drawn) [Compound 19, 3-((1R,5S,9S)-3-((S)-1-(1H-imidazol-5-yl)ethyl)-9-methoxy-3-azabicyclo[3.3.1]nonan-9-yl)benzamide hydrochloride] | < 10 nM | < 1 nM | 
COC1(c2cccc(C(N)=O)c2)C2CCCC1CN(C1CC3CCC(C1)O3)C2 (single isomer, unassigned) [Compound 16, hydrochloride] | < 10 nM | < 1 nM | 
COC1(c2ccnc(C(N)=O)c2)C2CCCC1CN(CC1(F)CCOCC1)C2 (centres unmarked) [Compound 198] |  | > 5 nM | 
COC1(c2ccnc(C(N)=O)c2)C2CCCC1CN([C@H]1C[C@@H]3[C@H](C1)C3(F)F)C2 (some centres unmarked) [Compound 197] | < 10 nM | < 1 nM | 
COC1(c2cccc(C(N)=O)c2)C2CCCC1CN([C@H](C)c1cnc[nH]1)C2 (stereo partly drawn) [Compound 20, 3-((1R,5S,9R)-3-((R)-1-(1H-imidazol-5-yl)ethyl)-9-methoxy-3-azabicyclo[3.3.1]nonan-9-yl)benzamide hydrochloride] | 10 to 75 nM | 1 to 5 nM | 
COC1(c2ccnc(C(N)=O)c2)C2CCCC1CN(C1CCC(F)(F)CC1)C2 (centres unmarked) [Compound 195] | > 75 nM | 1 to 5 nM | 
COC1(c2cccc(C(N)=O)c2)C2CCCC1CN(C1CN(c3ccccc3)C1)C2 [Compound 151, 3-((1R,5S,9r)-9-methoxy-3-(1-phenylazetidin-3-yl)-3-azabicyclo[3.3.1]nonan-9-yl)benzamide (S)-2-hydroxysuccinate] | < 10 nM | < 1 nM | 
COC1(c2cccc(C(N)=O)c2)C2CCCC1CN(C1CCC(F)(F)CC1)C2 (centres unmarked) [Compound 196] | 10 to 75 nM | < 1 nM | 
NC(=O)c1cccc(C2(OCCF)C3CCCC2CNC3)c1 (centres unmarked) [Compound 187] | 10 to 75 nM | > 5 nM | 
COC1(c2cccc(C(N)=O)c2)C2CCCC1CN(C[C@H]1C[C@@H]3C[C@@H]3C1)C2 (stereo partly drawn) [Compound 152, 3-((1R,5s,9R)-3-((1R,3s,5S)-bicyclo[3.1.0]hexan-3-ylmethyl)-9-methoxy-3-azabicyclo[3.3.1]nonan-9-yl)benzamide hydrochloride] | < 10 nM | < 1 nM | 
COC1(c2cccc(C(N)=O)c2)C2CCCC1CN([C@H]1C[C@@H]3[C@H](C1)C3(F)F)C2 (some centres unmarked) [Compound 200] | < 10 nM | < 1 nM | 
COC1(c2cccc(C(N)=O)c2)C2CCCC1CN(C1CC3CCC(C1)O3)C2 (centres unmarked) [Compound 203] | > 75 nM | 1 to 5 nM | 
COC1(c2cccc(C(N)=O)c2)C2CCCC1CN(C1C[C@@H]3C[C@@H]3C1)C2 (some centres unmarked) [Compound 199] | < 10 nM | < 1 nM | 
COC1(c2ccnc(C(N)=O)c2)C2CCCC1CN(Cc1c[nH]c3ccccc13)C2.Cl [Compound 126, 4-((1R,5S,9r)-3-((1H-indol-3-yl)methyl)-9-methoxy-3-azabicyclo[3.3.1]nonan-9-yl)picolinamide hydrochloride] |  |  | minimal effective dose (Male Sprague-Dawley rats [3]): 0.1 mg/kg; EC50 (human μ opioid receptor [4]): < 10 nM; <60 mmHg @ 10X CFA MEMD (Male Sprague-Dawley rats [5]): − (resulted in a maximum pCO2 value of greater than 60 mmHg within 2 hours of administration); Ki (μ-receptor [6]): < 1 nM
COC1(c2ccnc(C(N)=O)c2)C2CCCC1CN([C@H]1CCOC1)C2.Cl (stereo partly drawn) [Compound 79, 4-((1R,5S,9R)-9-methoxy-3-((R)-tetrahydrofuran-3-yl)-3-azabicyclo[3.3.1]nonan-9-yl)picolinamide hydrochloride] |  |  | minimal effective dose (Male Sprague-Dawley rats [3]): 0.3 mg/kg; EC50 (human μ opioid receptor [4]): 10 to 75 nM; <60 mmHg @ 10X CFA MEMD (Male Sprague-Dawley rats [5]): + (resulted in a maximum pCO2 value of less than 60 mmHg within 2 hours of administration); <60 mmHg @ 100X CFA MEMD (Male Sprague-Dawley rats [5]): − (resulted in a maximum pCO2 value of greater than 60 mmHg within 2 hours of administration); Ki (μ-receptor [6]): 1 to 5 nM
COC1(c2ccnc(C(N)=O)c2)C2CCCC1CN(Cc1cnn[nH]1)C2.Cl [Compound 108, 4-((1R,5S,9r)-3-((1H-1,2,3-triazol-5-yl)methyl)-9-methoxy-3-azabicyclo[3.3.1]nonan-9-yl)picolinamide hydrochloride] |  |  | minimal effective dose (Male Sprague-Dawley rats [3]): 0.3 mg/kg; EC50 (human μ opioid receptor [4]): 10 to 75 nM; <60 mmHg @ 10X CFA MEMD (Male Sprague-Dawley rats [5]): + (resulted in a maximum pCO2 value of less than 60 mmHg within 2 hours of administration); <60 mmHg @ 100X CFA MEMD (Male Sprague-Dawley rats [5]): + (resulted in a maximum pCO2 value of less than 60 mmHg within 2 hours of administration); Ki (μ-receptor [6]): 1 to 5 nM
CCOC1(c2cccc(C(N)=O)c2F)C2CCCC1CNC2 (centres unmarked) [Compound 180] | > 75 nM | > 5 nM | 
COC1(c2cccc(C(N)=O)c2)C2CCCC1CN(Cc1cnc(C)[nH]1)C2 [Compound 149, 3-((1R,5S,9r)-9-methoxy-34(2-methyl-1H-imidazol-4-yl)methyl)-3-azabicyclo[3.3.1]nonan-9-yl)benzamide hydrochloride] | < 10 nM | < 1 nM | 
COC1(c2ccnc(C(N)=O)c2)C2CCCC1CN(C1CC3CCC(C1)O3)C2 (centres unmarked) [Compound 202] | > 75 nM | > 5 nM | 
CCOC1(c2cc(C(N)=O)ccc2Cl)C2CCCC1CNC2 (centres unmarked) [Compound 188] | > 75 nM | > 5 nM | 
COC1(c2ccnc(C(N)=O)c2)C2CCCC1CN(C1CC3CCC(C1)O3)C2 [Compound 12, 4-((1R,5S,9R)-3-((1R,3s,5S)-8-oxabicyclo[3.2.1]octan-3-yl)-9-methoxy-3-azabicyclo[3.3.1]nonan-9-yl)picolinamide hydrochloride] | 10 to 75 nM |  | Ki (μ-receptor [2]; hydrochloride): < 1 nM
CCOC1(c2cccc(C(N)=O)c2)C2CCCC1CNC2.Cl [Compound 160, 3-((1R,5S,9r)-9-ethoxy-3-azabicyclo[3.3.1]nonan-9-yl)benzamide] | 10 to 75 nM | 1 to 5 nM | minimal effective dose (Male Sprague-Dawley rats [3]): 0.1 mg/kg; <60 mmHg @ 10X CFA MEMD (Male Sprague-Dawley rats [5]): + (resulted in a maximum pCO2 value of less than 60 mmHg within 2 hours of administration); <60 mmHg @ 100X CFA MEMD (Male Sprague-Dawley rats [5]): + (resulted in a maximum pCO2 value of less than 60 mmHg within 2 hours of administration)
COC1(c2cccc(C(N)=O)c2)C2CCCC1CN(C1CC3(COC3)C1)C2.O=C(O)CC(O)C(=O)O [Compound 133, 3-((1R,5S,9r)-9-methoxy-3-(2-oxaspiro[3.3]heptan-6-yl)-3-azabicyclo[3.3.1]nonan-9-yl)benzamide (S)-2-hydroxysuccinate] |  |  | minimal effective dose (Male Sprague-Dawley rats [3]): 1 mg/kg; EC50 (human μ opioid receptor [4]): < 10 nM; <60 mmHg @ 10X CFA MEMD (Male Sprague-Dawley rats [5]): + (resulted in a maximum pCO2 value of less than 60 mmHg within 2 hours of administration); Ki (μ-receptor [6]): < 1 nM
COC1(c2cccc(C(N)=O)c2)C2CCCC1CN(CC1CCOCC1)C2.Cl [Compound 122, 3-((1R,5S,9r)-9-methoxy-3-((tetrahydro-2H-pyran-4-yl)methyl)-3-azabicyclo[3.3.1]nonan-9-yl)benzamide hydrochloride] |  |  | minimal effective dose (Male Sprague-Dawley rats [3]): 0.3 mg/kg; EC50 (human μ opioid receptor [4]): 10 to 75 nM; <60 mmHg @ 10X CFA MEMD (Male Sprague-Dawley rats [5]): + (resulted in a maximum pCO2 value of less than 60 mmHg within 2 hours of administration); Ki (μ-receptor [6]): 1 to 5 nM
CCOC1(c2ccc(F)c(C(N)=O)c2)C2CCCC1CNC2 (centres unmarked) [Compound 183] | > 75 nM | > 5 nM | 
